Measured values from patent publication US8017125B2, “Copolymers for suppression of autoimmune diseases, and methods of use” (President and Fellows of Harvard College, priority 2001, dated 2011).

Assays:
HLA-DR-2 molecules = target: T1, HLA-DR-2 molecules (Homo sapiens, UniProt P01903+P01911); test: Competitive binding of biotinylated MBP 86-100 to HLA-DR-2 molecules; conditions: biotinylated MBP 86-100 0.13 μM, 40 hr at 37° C.
T1 construct: Recombinant water-soluble HLA-DR-2 molecules were incubated with biotinylated MBP 86-100; Soluble HLA-DR-2 molecules were expressed in Drosophila S2 cells; made in house; host or cells: Drosophila S2 cells
Procedure: Protein expression and purification. Soluble HLA-DR-2 molecules were expressed in Drosophila S2 cells and purified as described (Kalandadze, A. et al. 1996. J. Biol. Chem. 271:20156-20162). Cells were grown at 26° C. in roller bottles in ExCell 401 medium (JRH Biosciences, Lenexa, Kans.) supplemented with 0-5% fetal bovine serum (Sigma Chemicals, St. Louis, Mo.). Cells were harvested 4-5 days after induction by 1 mM CuSO4. Supernatant from harvested cells was sequentially passed through Protein A, Protein G and Protein A-LB3.1 columns, followed by elution of the bound HLA-DR with 50 mM 3-[cyclohexylamino]-1-propanesulfonic acid (CAPS), pH 11.5, and neutralized with 200 mM phosphate (pH 6.0). Proteins were concentrated on a Centriprep 10 membrane (Amicon, Beverly, Mass.).
(A). Solutions. The solutions used in this assay are the following: binding buffer is 20 mM 2-[N-morpholino]ethanesulfonic acid (MES), 140 mM NaCl, 0.05% NaN3, pH 5.0, unless otherwise specified; PBS is 150 mM sodium chloride, 7.5 mM sodium phosphate, dibasic, 2.5 mM sodium phosphate, monobasic, pH 7.2; TBS is 137 mM sodium chloride, 25 mM Tris pH 8.0, 2.7 mM potassium chloride; TTBS is TBS plus 0.05% Tween-20. (B). […] Bound peptide-biotin was detected using streptavidin-conjugated alkaline phosphatase, as follows. […] Absorbance at 410 nm was monitored by a microplate reader (model MR4000; Dynatech, Chantilly, Va.).

[1] = test system: 2E12 T cell clone (MBP 84-102-specific hybridoma from HLA-DR-2-transgenic mice); test: Antigen presentation assay, 2E12 T cell clone; assay type: cell-based, mouse; conditions: L466 APC, MBP 85-99 4 μM (FIG. 1A)
Description: (§1) Antigen presentation assays.

[2] = test system: Hy1B clone (MBP 84-102-specific TCR transfectant); test: Antigen presentation assay, Hy1B T cell clone; assay type: cell-based; conditions: MGAR APC, MBP 85-99 12.5 μM (FIG. 1C)
Description: as §1

[3] = test system: H-2s-restricted PLP 139-151-specific T cell hybridoma hPLP/1; test: Antigen presentation assay, hPLP/1 hybridoma; assay type: cell-based, mouse; conditions: SJL/J splenocytes, PLP 139-151 24 μM, copolymer 28 μM (FIG. 2B)
Description: as §1

[4] = test system: EAE induced by WSCH in SJL/J mice; test: Suppression of EAE induced by WSCH; assay type: in vivo; conditions: for Incidence (mice with clinical signs of EAE / total immunized mice): SJL/J mice coinjected s.c. with 500 μg WSCH and 500 μg copolymer, observed 40 days
Procedure: (§2) Induction and suppression of EAE. […] Mice were scored daily for clinical signs of EAE on a scale 1-5, according to the severity of disease symptoms as previously described (Santambrogio, L. et al. 1993. J. Immunol. 151: 1116). For determination of suppression of EAE, each copolymer (500 μg/mouse) was mixed and injected with the encephalitogenic emulsion as described above.
To find out whether VEAK and FEAK random copolymers affected the clinical course of EAE in SJL/J mice, a number of in vivo experiments were performed. The protocol for disease induction was subcutaneous injection to co-immunize with both WSCH (500 μg) and each copolymer (500 μg), similar to the protocol of previous studies of suppression of EAE by Cop1 (Teitelbaum, D. et al. 1996. J. Neuroimmunol. 64:209-217). Following disease induction, mice were observed daily for 40 days for appearance of typical clinical signs of EAE (Table 1).

[5] = test system: EAE induced by PLP 139-151 in SJL/J mice; test: Suppression of EAE induced by PLP 139-151 peptide; assay type: in vivo; conditions: for Maximum mean score: clinical scale 1-5; for Incidence (mice with clinical signs of EAE / total immunized mice): Example 10: SJL/J mice co-injected with 50 μg PLP 139-151 and 500 μg copolymer, observed 70 days
Procedure: as §2
To find out whether random copolymers provided herein might affect development of chronic-relapsing EAE, mice were injected subcutaneously with 50 μg of PLP 139-151 (SEQ ID NO: 4; the encephalitogenic epitope in the SJL/J strain) alone, or with 50 μg of PLP 139-151 (SEQ ID NO: 4) and 500 μg of the copolymer. Mice were examined on a daily basis for 90 days after the induction of the disease.
In vivo experiments were carried out to determine whether the Y- and F-containing 50-mer random copolymers would affect the clinical course of EAE in SJL/J mice. As in Examples above, the protocol for co-immunization was subcutaneous injection of SJL/J mice with, in this example, the encephalitogenic epitope PLP 139-151 (SEQ ID NO: 4; 50 μg) and a copolymer preparation (500 μg). Following disease induction, mice were observed daily for appearance of typical signs of EAE, during a period of 70 days.

[6] = test system: EAE induced by MBP 85-99 in humanized mice carrying HLA DR-2 and TCR transgenes; test: Suppression of EAE induced by MBP 85-99 in humanized mice; assay type: in vivo; conditions: for Clinical score (severity of symptoms): 50 days
Description: Mouse strains. SJL/J (H-2^s) mice (8-12 weeks of age) were purchased from Jackson Laboratories (Bar Harbor, Me.) and were maintained in the animal facility at Harvard University according to the Guidelines of the Committee on Animals of Harvard University and the Committee on Care and Use of Laboratory Animal Resources, National Research Counsel (Department of Health and Human Services Publication 85-23, revised 1987).
Experimental animals were humanized mice carrying transgenes HLA DR-2 (DRA* 0101 and DRB1* 1501) and TCR from MS patient […], which is a V(D)J rearrangement of TCRα and TCRβ, amplified from clone Ob.1A12. Mice in each group were injected with MBP 85-99 (SEQ ID NO: 2) subcutaneously to induce EAE. […] Clinical symptoms were monitored over a course of 50 days on days indicated.

[7] = test system: H-2s-restricted PLP 139-151-specific T cell hybridoma hPLP/c4; conditions: SJL/J splenocytes, PLP 139-151 24 μM, copolymer 28 μM (FIG. 2C)
MS patients = conditions: cited from earlier work
[8] = SJL/J mice, 500 μg WSCH + 500 μg copolymer
[9] = Example 10: 50 μg PLP 139-151 + 500 μg copolymer
[10] = Example 10: 50 μg PLP 139-151 + 500 μg copolymer, listed as Copaxone®

In the case of Glatiramer acetate [Copaxone ®], the “Inhibition of binding of biotinylated MBP 86-100 to HLA-DR-2 molecules” value (HLA-DR-2 molecules) is reported as “inhibited most efficiently”, the “Inhibition of proliferation of the 2E12 T cell clone” value [1] is reported as “efficient” and the “Inhibition of the Hy1B clone” value [2] is reported as “best inhibitor”. The “Inhibition of proliferation of hPLP/1 hybridoma” value [3] was “best inhibited”, the “Incidence (mice with clinical signs of EAE / total immunized mice)” value [4] was 1/14 and the “Incidence (mice with clinical signs of EAE / total immunized mice)” value ([4]; listed as Copaxone®) was “One out of fourteen”. For the same substance, the “Mean day of onset” value [4, 8] was 20.0 days, the Percent disease [4, 8] was 7% and the Percent mortality [4, 8] was 0%. For the same substance, the Maximum mean score ([4]; SJL/J mice, 500 μg WSCH + 500 μg copolymer, clinical scale 1-5) was 3.0, the “Mean day of onset” value ([4]; SJL/J mice, 500 μg WSCH + 500 μg copolymer, listed as Copaxone®) was 20 days and the “Effect on course of EAE induced by WSCH (in words)” value ([4]; co-immunization, 500 μg copolymer) was “suppressed EAE”. The “Day of first attack” value ([5]; Example 6) was 26 days, the “Day of peak of first attack” value ([5]; Example 6) was 34 days and the Mean maximal score ([5]; Example 6) was 1.25. The Mortality ([5]; Example 6: 50 μg PLP 139-151 + 500 μg copolymer, 90 days) was 12%, the “Mice with clinical signs of EAE out of group” value ([5]; Example 6: 50 μg PLP 139-151 + 500 μg copolymer, observed 90 days) was “two out of eight” and the “Mean day of onset” value [5, 9] was 22.7 ± 7.1 days. It also gave a Percent disease [5, 9] of 75%, a Percent mortality [5, 9] of 6% and a Maximum mean score [5, 9] of 2.6 ± 1.6. For the same substance, the Maximum mean score [5, 10] was 2.6, the “Mean day of onset” value [5, 10] was 22 days and the “Incidence (mice with clinical signs of EAE / total immunized mice)” value [5] was 12/16. The “Incidence (mice with clinical signs of EAE / total immunized mice)” value ([5]; listed as Copaxone®) was 12 of 16, the “Number of time points with symptoms” value ([6]; co-immunized) was “nine” and the “Clinical score (severity of symptoms)” value ([6]; co-immunized on day 0 with 500 μg copolymer and 50 μg MBP 85-99) was 2 to 3. For the same substance, the “Number of time points with symptoms” value ([6]; pre-immunized) was 14 time points, the “Stable level of symptoms (severity)” value ([6]; pre-immunized) was “greater than 1” and the “Clinical score (severity of symptoms)” value ([6]; pre-immunized two days prior to EAE induction) was “greater than 3”. The “Inhibition of hPLP/c4 hybridoma” value [7] was “best inhibited”, the “Reduction of frequency of relapse” value (MS patients) was “about 30%” and the Toxicity (MS patients; wide use) was “little or no toxicity”.

For ENPVVHFFKNIVTPR [MBP 85-99], the “Inhibition of binding of biotinylated MBP 86-100 to HLA-DR-2 molecules” value (HLA-DR-2 molecules) was “inhibited most efficiently”.
